Assay results from patent US9896441B2 (Lycera Corporation, priority 2014, dated 2018).

Columns and labels:
[1] = target: T1, RORγ-LBD (Homo sapiens, UniProt P51449); experiment: RORγ-Ligand Binding Domain (LBD) TR-FRET Assay; format: biochemical; details: for TR-FRET Assay Max Response: maximum response;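 as to TR-FRET Assay Max Response: 665/615 nm signal ratio set to 100 without ursolic acid or test compound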
T1 construct: made in house; host or cells: SF9 cells (baculovirus); used as diluted lysate
T1 sequence (P51449 269-508 limits assumed): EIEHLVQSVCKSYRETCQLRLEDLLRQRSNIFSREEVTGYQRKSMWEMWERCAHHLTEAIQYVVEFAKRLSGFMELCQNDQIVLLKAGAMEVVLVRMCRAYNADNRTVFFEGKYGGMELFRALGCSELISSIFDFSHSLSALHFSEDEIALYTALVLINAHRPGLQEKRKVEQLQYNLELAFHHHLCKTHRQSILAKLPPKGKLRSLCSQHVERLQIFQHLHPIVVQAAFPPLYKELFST
Procedure, shortened: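 TR-FRET read-out using a biotin-tagged SRC1 coactivator LXXLL peptide (200 nM final), with the antagonist ursolic acid present at 2 μM final. Receptor is His-tagged LBD expressed in SF9 cells, ~3 nM final in pH 7.0 Tris/KCl/EDTA/DTT/BSA buffer; compounds in 1% DMSO final.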

[2] = target: T2, Gal4-RORγ-LBD (Homo sapiens, UniProt P51449); experiment: Gal4-RORγ Luciferase Reporter Assay in HEK-293T Cells; format: cell-based; details: HEK-293 cells; for Gal4-RORγ Assay Max Response: maximum response
T2 construct: expressed in transfected cells
T2 sequence (P51449 269-508 limits assumed): T1 sequence (P51449 269-508 limits assumed)
Procedure, shortened: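 Max Response was taken as the upper plateau of a 4-parameter logistic fit of luciferase signal, normalized to 100 for wells without ursolic acid or compound. Transiently Gal4-RORγ-LBD/Gal4-luc transfected HEK-293 cells carrying […] ursolic acid were incubated with test compounds (0.2% DMSO) overnight at 37 °C and read with One-Glo.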

[3] = luciferase reporter, with ursolic acid
[4] = luciferase reporter, in presence of ursolic acid
[5] = with 2 μM ursolic acid (RORγ antagonist), highest test concentration 10 μM
[6] = ursolic acid present, luciferase readout

Row | Compound | EC50 ([1]; RORγ-LBD TR-FRET) | EC50 [2, 3] | EC50 ([1]; RORγ-LBD TR-FRET assay) | EC50 [2, 4] | TR-FRET Assay Max Response ([1]; RORγ-LBD TR-FRET assay) | Gal4-RORγ Assay Max Response [2, 4] | other results
1 | CC(=O)NCC[C@H]1CN(S(=O)(=O)c2cccc(C(F)(F)F)c2)c2cc(/C=C(\C)c3c(F)cccc3Cl)ccc2O1 [Example 112, (S,E)-N-(2-(6-(2-(2-Chloro-6-fluorophenyl)prop-1-en-1-yl)-4-((3-(trifluoromethyl)phenyl)sulfonyl)-3,4-dihydro-2H-benzo[b][1,4]oxazin-2-yl)ethyl)acetamide] | – | – | < 500 nM | < 500 nM | *** (a value in the range of greater than 150 to 200) | ** (a value in the range of greater than 90 to 150) | –
2 | CCOC(=O)[C@@H]1Cc2ccc(OC3CCc4ccccc43)cc2N(S(=O)(=O)c2ccc(F)c(OC)c2)[C@@H]1C (mixture of isomers) [Example 20, (2R,3R)-Ethyl 7-((2,3-dihydro-1H-inden-1-yl)oxy)-1-((4-fluoro-3-methoxyphenyl)sulfonyl)-2-methyl-1,2,3,4-tetrahydroquinoline-3-carboxylate] | < 500 nM | < 500 nM | – | – | – | – | –
3 | COc1cc(S(=O)(=O)N2c3cc(/C=C/c4c(F)cccc4Cl)ccc3O[C@@H](CO)[C@H]2C)ccc1F [Example 136, ((2R,3R)-6-((E)-2-Chloro-6-fluorostyryl)-4-((4-fluoro-3-methoxyphenyl)sulfonyl)-3-methyl-3,4-dihydro-2H-benzo[b][1,4]oxazin-2-yl)methanol] | – | – | < 500 nM | < 500 nM | **** (a value greater than 200) | ** (a value in the range of greater than 90 to 150) | –
4 | CCOc1ncc(C(F)(F)F)cc1S(=O)(=O)N1C[C@H](CCC(=O)O)Oc2ccc(/C=C(\C)c3c(F)cccc3Cl)cc21 [Example 34, (S,E)-3-(6-(2-(2-Chloro-6-fluorophenyl)prop-1-en-1-yl)-4-((2-ethoxy-5-(trifluoromethyl)pyridin-3-yl)sulfonyl)-3,4-dihydro-2H-benzo[b][1,4]oxazin-2-yl)propanoic acid] | < 500 nM | 500 to 5000 nM | – | – | – | – | –
5 | C/C(=C\c1ccc2c(c1)N(S(=O)(=O)c1cccc(C(F)(F)F)c1)C[C@H](CCC(=O)N(C)CCC(=O)O)O2)c1c(F)cccc1Cl [Example 129Q, (S,E)-3-(3-(6-(2-(2-chloro-6-fluorophenyl)prop-1-en-1-yl)-4-((3-(trifluoromethyl)-phenyl)sulfonyl)-3,4-dihydro-2H-benzo[b][1,4]-oxazin-2-yl)-N-methyl-propanamido)-propanoic acid] | – | – | – | – | – | – | EC50 [1, 5]: < 500 nM; EC50 [2, 6]: < 500 nM
6 | COC(=O)CC[C@H]1CN(S(=O)(=O)c2cc(C3CC3)cnc2OCCO)c2cc(/C=C/c3c(F)cccc3Cl)ccc2O1 [Example 89FP, methyl (S,E)-3-(6-(2-chloro-6-fluorostyryl)-4-((5-cyclopropyl-2-(2-hydroxyethoxy)pyridin-3-yl)sulfonyl)-3,4-dihydro-2H-benzo[b][1,4]oxazin-2-yl)propanoate] | – | – | – | – | – | – | EC50 [1, 5]: < 500 nM; EC50 [2, 6]: < 500 nM
7 | C/C(=C\c1ccc2c(c1)N(S(=O)(=O)c1cccc(C(F)(F)F)c1)C[C@H](CCNC(=O)C1CC1)O2)c1c(F)cccc1Cl [Example 113, (S,E)-N-(2-(6-(2-(2-Chloro-6-fluorophenyl)prop-1-en-1-yl)-4-((3-(trifluoromethyl)phenyl)sulfonyl)-3,4-dihydro-2H-benzo[b][1,4]oxazin-2-yl)ethyl)cyclopropanecarboxamide] | – | – | < 500 nM | < 500 nM | *** (a value in the range of greater than 150 to 200) | ** (a value in the range of greater than 90 to 150) | –
8 | C/C(=C\c1ccc2c(c1F)N(S(=O)(=O)c1cccc(OC(F)F)c1)C[C@H](CCC(=O)O)O2)c1c(F)cccc1Cl [Example 64, (S,E)-3-(6-(2-(2-Chloro-6-fluorophenyl)prop-1-en-1-yl)-4-((3-(difluoromethoxy)phenyl)sulfonyl)-5-fluoro-3,4-dihydro-2H-benzo[b][1,4]oxazin-2-yl)propanoic acid] | < 500 nM | 500 to 5000 nM | – | – | – | – | –
9 | CC(=O)N[C@H](C)[C@H]1CN(S(=O)(=O)c2cccc(C(F)(F)F)c2)c2cc(/C=C(\C)c3c(F)cccc3Cl)ccc2O1 [Example 103, N—((R)-1-((R)-6-((E)-2-(2-Chloro-6-fluorophenyl)prop-1-en-1-yl)-4-((3-(trifluoromethyl)phenyl)sulfonyl)-3,4-dihydro-2H-benzo[b][1,4]oxazin-2-yl)ethyl)acetamide] | < 500 nM | < 500 nM | – | – | – | – | –

Continued, in another order:

Row | EC50 ([1]; RORγ-LBD TR-FRET) | EC50 [2, 3] | EC50 ([1]; RORγ-LBD TR-FRET assay) | EC50 [2, 4] | Compound | TR-FRET Assay Max Response ([1]; RORγ-LBD TR-FRET assay) | Gal4-RORγ Assay Max Response [2, 4] | other results
10 | < 500 nM | > 10000 nM | – | – | COC(=O)CC[C@H]1CN(S(=O)(=O)c2cccc(C(F)(F)F)c2)c2cc(/C=C/c3cccc(Cl)c3)ccc2O1 [Example 89DI, methyl (S,E)-3-(6-(3-chlorostyryl)-4-((3-(trifluoromethyl)phenyl)-sulfonyl)-3,4-dihydro-2H-benzo[b][1,4]oxazin-2-yl)propanoate] | – | – | –
11 | – | – | < 500 nM | < 500 nM | C/C(=C\c1ccc2c(c1)N(S(=O)(=O)c1cccc(C(F)(F)F)c1)C[C@H](CCC(=O)N1CC(C(=O)O)C1)O2)c1c(F)cccc1Cl [Example 129D, (S,E)-1-(3-(6-(2-(2-chloro-6-fluorophenyl)-prop-1-en-1-yl)-4-((3-(trifluoromethyl)phenyl)sulfonyl)-3,4-dihydro-2H-benzo[b][1,4]oxazin-2-yl)propanoyl)azetidine-3-carboxylic acid] | **** (a value greater than 200) | ** (a value in the range of greater than 90 to 150) | –
12 | < 500 nM | 500 to 5000 nM | – | – | COC(=O)CC[C@H]1CN(S(=O)(=O)c2cccc(C(F)(F)F)c2C)c2cc(/C=C(\C)c3c(F)cccc3Cl)ccc2O1 [Example 86AN, (S,E)-methyl 3-(6-(2-(2-chloro-6-fluorophenyl)prop-1-en-1-yl)-4-((2-methyl-3-(trifluoromethyl)-phenyl)sulfonyl)-3,4-dihydro-2H-benzo[b][1,4]oxazin-2-yl)propanoate] | – | – | –
13 | < 500 nM | < 500 nM | – | – | C/C(=C\c1ccc2c(c1)N(S(=O)(=O)c1cn(C(C)C)nc1OCCO)C[C@H](CCC(=O)O)O2)c1c(F)cccc1Cl [Example 86AY, (S,E)-3-(6-(2-(2-chloro-6-fluorophenyl)prop-1-en-1-yl)-4-((3-(2-hydroxyethoxy)-1-isopropyl-1H-pyrazol-4-yl)sulfonyl)-3,4-dihydro-2H-benzo[b][1,4]oxazin-2-yl)propanoic acid] | – | – | –
14 | – | – | < 500 nM | 500 to 5000 nM | COc1cc(S(=O)(=O)C2CC(CCC(=O)O)Oc3ccc(/C=C(\C)c4c(F)cccc4Cl)cc32)ccc1F (centres unmarked) [Example 186G, (E)-3-(6-(2-(2-chloro-6-fluorophenyl)prop-1-en-1-yl)-4-((4-fluoro-3-methoxyphenyl)-sulfonyl)chroman-2-yl)propanoic acid] | ** (a value in the range of greater than 90 to 150) | ** (a value in the range of greater than 90 to 150) | –
15 | < 500 nM | 500 to 5000 nM | – | – | CCOc1nn(CC)cc1S(=O)(=O)N1C[C@H](CCC(=O)O)Oc2ccc(/C=C/c3ccccc3Cl)cc21 [Example 89BC, (S,E)-3-(6-(2-chlorostyryl)-4-((3-ethoxy-1-ethyl-1H-pyrazol-4-yl)sulfonyl)-3,4-dihydro-2H-benzo[b][1,4]oxazin-2-yl)propanoic acid] | – | – | –
16 | 500 to 5000 nM | > 10000 nM | – | – | O=C(O)CC[C@H]1CN(S(=O)(=O)c2cccc(OC(F)F)c2)c2cc(/C=C/c3ncccn3)ccc2O1 [Example 89G, (S,E)-3-(4-((3-(difluoromethoxy)-phenyl)sulfonyl)-6-(2-(pyrimidin-2-yl)vinyl)-3,4-dihydro-2H-benzo[b][1,4]oxazin-2-yl)propanoic acid] | – | – | –
17 | – | – | < 500 nM | 500 to 5000 nM | COc1cc(S(=O)(=O)N2C[C@H](CNC(=O)c3cccc(C(=O)O)c3)Oc3ccc(/C=C(\C)c4c(F)cccc4Cl)cc32)ccc1F [Example 135A, (S,E)-3-(((6-(2-(2-chloro-6-fluorophenyl)prop-1-en-1-yl)-4-((4-fluoro-3-methoxyphenyl)sulfonyl)-3,4-dihydro-2H-benzo[b][1,4]oxazin-2-yl)methyl)carbamoyl)benzoic acid] | *** (a value in the range of greater than 150 to 200) | * (a value in the range of 30 to 90) | –
18 | < 500 nM | < 500 nM | – | – | CCOc1nn(CC)cc1S(=O)(=O)N1C[C@H](CCC(=O)O)Oc2ccc(/C=C(\C)c3c(Cl)cccc3C(F)(F)F)cc21 [Example 86AW, (S,E)-3-(6-(2-(2-chloro-6-(trifluoromethyl)phenyl)prop-1-en-1-yl)-4-((3-ethoxy-1-ethyl-1H-pyrazol-4-yl)sulfonyl)-3,4-dihydro-2H-benzo[b][1,4]oxazin-2-yl)propanoic acid] | – | – | –
19 | < 500 nM | < 500 nM | – | – | COC(=O)CC[C@H]1CN(S(=O)(=O)c2ccc(F)c(C3CC3)c2)c2cc(/C=C(\C)c3c(F)cccc3Cl)ccc2O1 [Example 86D, (S,E)-methyl 3-(6-(2-(2-chloro-6-fluorophenyl)prop-1-en-1-yl)-4-((3-cyclopropyl-4-fluorophenyl)-sulfonyl)-3,4-dihydro-2H-benzo[b][1,4]oxazin-2-yl)propanoate] | – | – | –
